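These data come from cells grown in 96-well plates and exposed to compound for 48 hours at five concentrations. GI50 is the concentration that inhibits growth by half.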 Active and inactive are the calls of the source. Cut-off read from the data, not from the text of the source: active = GI50 up to about 1.1 µM and inactive = higher.
Tests used:
Assay in all cases: inhibition of tumour cell growth, NCI panel, 48 h
DU-145 = system: DU-145
EKVX = system: EKVX
HT-29 = system: HT-29
IGROV-1 = system: IGROV-1
K562 = system: K562
LOX IMVI = system: LOX IMVI
M14 = system: M14
MDA-MB-231 = system: MDA-MB-231
Malme-3M = system: Malme-3M
NCI-H23 = system: NCI-H23
OVCAR-4 = system: OVCAR-4
OVCAR-5 = system: OVCAR-5
OVCAR-8 = system: OVCAR-8
RPMI-8226 = system: RPMI-8226
SF-268 = system: SF-268
SK-MEL-5 = system: SK-MEL-5
SN12C = system: SN12C
U-251 = system: U-251
UACC-62 = system: UACC-62
NCI-H522 = system: NCI-H522

Row | Compound | GI50 (DU-145) | GI50 (EKVX) | GI50 (HT-29) | GI50 (IGROV-1) | GI50 (K562) | GI50 (LOX IMVI) | GI50 (M14) | GI50 (MDA-MB-231) | GI50 (Malme-3M) | GI50 (NCI-H23) | GI50 (OVCAR-4) | GI50 (OVCAR-5) | GI50 (OVCAR-8) | GI50 (RPMI-8226) | GI50 (SF-268) | GI50 (SK-MEL-5) | GI50 (SN12C) | GI50 (U-251) | GI50 (UACC-62) | GI50 (NCI-H522)
1 | CC(C(=O)N1c2ccccc2Sc2ccccc21)N1c2ccccc2Sc2ccccc21 (stereo not drawn) | > 100 µM (inactive) | > 100 µM (inactive) | 72.3 µM (inactive) | 79.8 µM (inactive) | 84.1 µM (inactive) | > 100 µM (inactive) | > 100 µM (inactive) | > 100 µM (inactive) | > 100 µM (inactive) | 74.8 µM (inactive) | > 100 µM (inactive) | > 100 µM (inactive) | 97.1 µM (inactive) | > 100 µM (inactive) | > 100 µM (inactive) | 57.5 µM (inactive) | > 100 µM (inactive) | 60 µM (inactive) | > 100 µM (inactive) | –
2 | Cc1cccc(Nc2nn3c(=O)c4c5c(sc4nc3s2)CCCC5)c1 | > 100 µM (inactive) | – | 10.4 µM (inactive) | 43.4 µM (inactive) | 5.09 µM (inactive) | 3.33 µM (inactive) | 3.89 µM (inactive) | 8.09 µM (inactive) | 3.15 µM (inactive) | 14 µM (inactive) | 16 µM (inactive) | 87.7 µM (inactive) | 12.4 µM (inactive) | – | 3.36 µM (inactive) | 2.4 µM (inactive) | 66.7 µM (inactive) | 46.2 µM (inactive) | 0.647 µM (active) | 4.35 µM (inactive)
3 | CCN1CCC(CNC(=O)c2ccc(N)cc2)N1CC (stereo not drawn) | > 100 µM (inactive) | > 100 µM (inactive) | > 100 µM (inactive) | > 100 µM (inactive) | > 100 µM (inactive) | – | > 100 µM (inactive) | > 100 µM (inactive) | > 100 µM (inactive) | > 100 µM (inactive) | > 100 µM (inactive) | > 100 µM (inactive) | > 100 µM (inactive) | > 100 µM (inactive) | > 100 µM (inactive) | > 100 µM (inactive) | > 100 µM (inactive) | > 100 µM (inactive) | > 100 µM (inactive) | > 100 µM (inactive)
4 | O=C1NC(=S)NC(=O)C1=C/C=C/c1ccc([N+](=O)[O-])cc1 | 16.1 µM (inactive) | 17.9 µM (inactive) | 23.8 µM (inactive) | 12.2 µM (inactive) | 3.72 µM (inactive) | 6.76 µM (inactive) | 15 µM (inactive) | 18.2 µM (inactive) | 9.66 µM (inactive) | 13.9 µM (inactive) | 19.8 µM (inactive) | 18.3 µM (inactive) | 22.1 µM (inactive) | 7.24 µM (inactive) | 15.2 µM (inactive) | 19.3 µM (inactive) | 15.8 µM (inactive) | 4 µM (inactive) | 11 µM (inactive) | –
5 | c1ccc(C2CC(N3CCOCC3)=Nc3ccccc3N2)cc1 (stereo not drawn) | > 100 µM (inactive) | > 100 µM (inactive) | > 100 µM (inactive) | 93.8 µM (inactive) | 58.2 µM (inactive) | – | > 100 µM (inactive) | > 100 µM (inactive) | 80.9 µM (inactive) | > 100 µM (inactive) | > 100 µM (inactive) | > 100 µM (inactive) | > 100 µM (inactive) | 43.9 µM (inactive) | > 100 µM (inactive) | > 100 µM (inactive) | > 100 µM (inactive) | > 100 µM (inactive) | > 100 µM (inactive) | > 100 µM (inactive)
6 | CN(C)c1cccc2c(S(=O)(=O)NCCN)cccc12 [DANSYL ETHYLENEDIAMINE] | > 100 µM (inactive) | > 100 µM (inactive) | > 100 µM (inactive) | 33.7 µM (inactive) | > 100 µM (inactive) | > 100 µM (inactive) | > 100 µM (inactive) | > 100 µM (inactive) | > 100 µM (inactive) | > 100 µM (inactive) | > 100 µM (inactive) | > 100 µM (inactive) | – | – | > 100 µM (inactive) | 46.2 µM (inactive) | > 100 µM (inactive) | > 100 µM (inactive) | > 100 µM (inactive) | > 100 µM (inactive)
7 | Cc1ccccc1NC(=O)C(=O)CC(=O)c1sc(Nc2ccccc2[N+](=O)[O-])nc1C | 50 µM (inactive) | 34 µM (inactive) | 26.7 µM (inactive) | 41.4 µM (inactive) | 49.2 µM (inactive) | 37.4 µM (inactive) | 39.7 µM (inactive) | 17.3 µM (inactive) | – | 36.8 µM (inactive) | 18.2 µM (inactive) | 90.2 µM (inactive) | 43.4 µM (inactive) | 27.9 µM (inactive) | 38.5 µM (inactive) | 27.8 µM (inactive) | 50.6 µM (inactive) | 30.3 µM (inactive) | 18.2 µM (inactive) | 27.7 µM (inactive)
8 | CCOC(=O)c1c(-c2ccc(OC)cc2)c(C#N)c(=S)n(C2OC(CO)C(O)C(O)C2O)c1C (stereo not drawn) | > 100 µM (inactive) | > 100 µM (inactive) | > 100 µM (inactive) | > 100 µM (inactive) | > 100 µM (inactive) | > 100 µM (inactive) | > 100 µM (inactive) | > 100 µM (inactive) | > 100 µM (inactive) | > 100 µM (inactive) | > 100 µM (inactive) | > 100 µM (inactive) | > 100 µM (inactive) | – | > 100 µM (inactive) | > 100 µM (inactive) | > 100 µM (inactive) | > 100 µM (inactive) | – | > 100 µM (inactive)
9 | OC[C@H]1O[C@@H]2O[C@@](COCc3ccccc3)([C@H](OCc3ccccc3)[C@H]2O)[C@@H]1OCc1ccccc1 | 16.5 µM (inactive) | 14.1 µM (inactive) | 4.81 µM (inactive) | 13.9 µM (inactive) | 7.76 µM (inactive) | 16.7 µM (inactive) | 17.6 µM (inactive) | 15.3 µM (inactive) | – | 16.6 µM (inactive) | 2.99 µM (inactive) | 17.1 µM (inactive) | 14.6 µM (inactive) | 13.7 µM (inactive) | 18.1 µM (inactive) | 15.3 µM (inactive) | 15.7 µM (inactive) | 15.7 µM (inactive) | 14.4 µM (inactive) | 17.3 µM (inactive)
10 | Cc1cc2nnn(C3CCCCO3)c2cc1C (stereo not drawn) | > 100 µM (inactive) | > 100 µM (inactive) | > 100 µM (inactive) | > 100 µM (inactive) | > 100 µM (inactive) | – | > 100 µM (inactive) | > 100 µM (inactive) | > 100 µM (inactive) | > 100 µM (inactive) | > 100 µM (inactive) | > 100 µM (inactive) | > 100 µM (inactive) | – | – | > 100 µM (inactive) | > 100 µM (inactive) | > 100 µM (inactive) | > 100 µM (inactive) | > 100 µM (inactive)
11 | Brc1ccc2c3c1[C@H]1O[C@H]1c1cccc(c1-3)[C@@H]1O[C@H]21 | 13 µM (inactive) | 18.6 µM (inactive) | 8.11 µM (inactive) | – | 2.65 µM (inactive) | 2.82 µM (inactive) | 17.2 µM (inactive) | 20.6 µM (inactive) | 17.8 µM (inactive) | 17.8 µM (inactive) | 15.1 µM (inactive) | 20.2 µM (inactive) | 15.6 µM (inactive) | – | 17.7 µM (inactive) | 15 µM (inactive) | 17.6 µM (inactive) | 14 µM (inactive) | 16.8 µM (inactive) | 10.4 µM (inactive)

Source: ChEMBL document CHEMBL1201862, “PubChem BioAssay data set” (2004)
